According to publication PMC7172207 (Bioorganic & Medicinal Chemistry Letters, 2019):

How the values were obtained:
[1] = tested on: DENV2; assay: Immunofluorescence assay of DENV2 infectivity; assay type: cell-based, Dengue virus type 2 (strain 16681); settings: for rate of NS4B-positive cells: Vero E6, DENV2-infected, 96 h
[2] = tested on: DENV2; assay: Anti-DENV2 activity in human lung epithelial A549 cells; assay type: cell-based, Dengue virus type 2; settings: DENV2 MOI 0.01, 120 h

SMILES: CC[C@H](C)[C@H](NC(=O)[C@H]1O[C@@H](O[C@H]2[C@@H](O[C@H]3CC[C@]4(C)[C@H]5C(=O)C=C6[C@@H]7C[C@@](C)(C(=O)N[C@H](C(=O)O)[C@@H](C)CC)CC[C@]7(C)CC[C@@]6(C)[C@]5(C)CC[C@H]4C3(C)C)O[C@H](C(=O)N[C@H](C(=O)O)[C@@H](C)CC)[C@@H](O)[C@@H]2O)[C@H](O)[C@@H](O)[C@@H]1O)C(=O)O [Compound 13]
- rate of NS4B-positive cells ([1]; 0.1 μM compound): 37.2%
- rate of NS4B-positive cells ([1]; 1 μM compound): 29.4%
- rate of NS4B-positive cells ([1]; 10 μM compound): 1.6%
- anti-DENV2 activity in A549 cells (in words) [2]: potent anti-DENV2 activity

SMILES: CC1(C)[C@@H](O[C@H]2O[C@H](C(=O)N[C@@H](Cc3ccccc3)C(=O)O)[C@@H](O)[C@H](O)[C@H]2O[C@@H]2O[C@H](C(=O)N[C@@H](Cc3ccccc3)C(=O)O)[C@@H](O)[C@H](O)[C@H]2O)CC[C@]2(C)[C@H]3C(=O)C=C4[C@@H]5C[C@@](C)(C(=O)N[C@@H](Cc6ccccc6)C(=O)O)CC[C@]5(C)CC[C@@]4(C)[C@]3(C)CC[C@@H]12 [Compound 14]
- anti-DENV2 activity (in words) ([1]; Vero E6 cells, CPE test and NS4B-positive cells): dropped the anti-DENV activity

SMILES: COC(=O)[C@H](CCSC)NC(=O)[C@H]1O[C@@H](O[C@H]2[C@@H](O[C@H]3CC[C@]4(C)[C@H]5C(=O)C=C6[C@@H]7C[C@@](C)(C(=O)N[C@@H](CCSC)C(=O)OC)CC[C@]7(C)CC[C@@]6(C)[C@]5(C)CC[C@H]4C3(C)C)O[C@H](C(=O)N[C@@H](CCSC)C(=O)OC)[C@@H](O)[C@@H]2O)[C@H](O)[C@@H](O)[C@@H]1O [Compound 6]
- TI (CC50/IC50) ([1]; Vero E6 cells): ˃22.2

SMILES: CC1(C)[C@@H](O[C@H]2O[C@H](C(=O)O)[C@@H](O)[C@H](O)[C@H]2O[C@@H]2O[C@H](C(=O)O)[C@@H](O)[C@H](O)[C@H]2O)CC[C@]2(C)[C@H]3C(=O)C=C4[C@@H]5C[C@@](C)(C(=O)O)CC[C@]5(C)CC[C@@]4(C)[C@]3(C)CC[C@@H]12 [Compound 1, Glycyrrhizic acid, reference compound]
- TI (CC50/IC50) ([1]; Vero E6 cells): ˃12.3
